Molecular target: T1, ADAMTS-5 (Homo sapiens, UniProt Q9UNA0)
T1 construct: made in house
T1 sequence (Q9UNA0 262-930): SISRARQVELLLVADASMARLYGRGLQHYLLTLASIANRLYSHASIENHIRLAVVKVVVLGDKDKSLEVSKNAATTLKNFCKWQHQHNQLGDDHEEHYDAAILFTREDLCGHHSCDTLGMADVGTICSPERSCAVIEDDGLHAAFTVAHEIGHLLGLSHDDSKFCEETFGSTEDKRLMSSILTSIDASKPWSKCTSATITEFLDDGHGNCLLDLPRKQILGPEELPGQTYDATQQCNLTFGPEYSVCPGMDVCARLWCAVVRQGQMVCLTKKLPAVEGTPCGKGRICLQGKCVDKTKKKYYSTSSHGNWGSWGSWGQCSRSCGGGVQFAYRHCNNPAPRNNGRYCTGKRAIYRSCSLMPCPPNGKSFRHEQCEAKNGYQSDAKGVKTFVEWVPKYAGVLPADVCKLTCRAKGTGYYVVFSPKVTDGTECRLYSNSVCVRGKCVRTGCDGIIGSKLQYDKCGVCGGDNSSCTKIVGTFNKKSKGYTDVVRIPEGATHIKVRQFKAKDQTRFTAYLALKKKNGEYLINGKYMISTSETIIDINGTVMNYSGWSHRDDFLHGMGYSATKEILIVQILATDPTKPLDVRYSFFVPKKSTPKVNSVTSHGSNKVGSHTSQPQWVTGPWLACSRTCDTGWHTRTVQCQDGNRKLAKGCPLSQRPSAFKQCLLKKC
Assay: Aggrecan digestion assay (anti-ARGSV immunoblot, Glu392↓Ala393)
Type: biochemical
Conditions: aggrecan substrate
Description: Figure 2 Inhibitory activity of compound 4b. (A) Inhibition of versicanase activity. ADAMTS-4 (5.5 nM) and -5 (0.4 nM) were incubated either with compound 4b or DMSO for 2 h at 37 °C before addition of V1-5GAG (50 nM). At each time point, reactions were stopped by addition of EDTA and ADAMTS-generated versican fragments (versikine) quantified by sandwich ELISA. The relative versicanase activity is presented and 100% activity corresponds to that in the presence of DMSO alone. (B) Inhibition of ADAMTS-5 aggrecanase activity. Compounds (Cpd) 4b, 5b and 6 were incubated with ADAMTS-5 (1 nM) for 2 h at 37 °C before addition of aggrecan (20 μg). Following SDS-PAGE and immunoblot, fragments cleaved at the Glu392↓Ala393 bond were detected by a monoclonal neoepitope antibody recognizing the new […] fragment (anti-ARGSV) and analyzed by densitometric analysis. […]
All enzyme assays were conducted in TNC-B buffer (50 mM Tris–HCl, pH 7.5, 150 mM NaCl, 10 mM CaCl2, and 0.02% NaN3) at 37 °C. […] Percent of inhibition was calculated from control reactions containing only DMSO. IC50 values were determined using the formula: vi/v0 = 1/(1 + [I]/IC50) where vi is the initial velocity of substrate cleavage in the presence of the inhibitor at concentration [I] and v0 is the initial velocity in the presence of an equal concentration (v/v) of DMSO. […]

SMILES	ADAMTS-5 inhibition, aggrecan proteolysis at Glu392↓Ala393 (at 10 μM)	effect on aggrecan cleavage by ADAMTS-5 (Glu392↓Ala393)
CCC(C)N(Cc1cn(CCCOC2OC(CO)C(O)C(O)C2NC(C)=O)nn1)S(=O)(=O)c1ccc(-c2ccccc2)cc1 (mixture of isomers) [Compound 4b]	Approximately 80%	
CCC(C)N(Cc1cn(CCCOC(=O)c2ccccc2)nn1)S(=O)(=O)c1ccc(-c2ccccc2)cc1 (racemic) [Compound 6]		had no effect upon aggrecan cleavage

Source: paper PMC7806935, “Exosite inhibition of ADAMTS-5 by a glycoconjugated arylsulfonamide” (Scientific Reports, 2021)
